In patent US20020028918A1, “Styryl dyes” (KABUSHIKI KAISHA HAYASHIBARA SEIBUTSU KAGAKU KENKYUJO, priority 2000, published 2002):

Key:
[1] = Light resistance of styryl dye thin layer under xenon lamp exposure; type: physicochemical; conditions: thin layer on glass, 500 W xenon lamp 25 min, transmittance at 600 nm
Procedure: Light-resistance Improvement of Styryl Dyes
Thereafter, in the usual manner, a prescribed amount of the resulting solution was dropped on either surface of a polished glass substrate, 5 cm×5 cm, while the glass substrate was rotated at a rotation rate of 1,000 rpm for one minute to uniformly coat the solution thereupon, and sequentially blown with hot air and cold air to dry the coated solution.
The resulting glass substrates coated with the styryl dyes were measured for transmittance (T0) at a wavelength of 600 nm, and then exposed with light for 25 min using a 500 W xenon lamp. Immediately after that, the resulting substrates were remeasured for transmittance (T) at a wavelength of 600 nm, and the transmittance of T and T0 dye substrated for the Equation 1 to calculate the residual percentage (%). In parallel, control systems, which 15 (mg) of the conventional compound represented by Chemical Formula 44 was dissolved to TFP with or without two mg of the azo organic metal complex represented by Chemical Formula 38 as a light-resistant improver, were provided and treated similarly as above. [formula]

[2] = Thermal property by DTA and TGA (decomposition point)
Source text: Thermal Property of Cyanine Dye
An adequate amount of any one of the styryl dyes of the present invention in Table 1 as test specimens was placed in a vessel and subjected to conventional differential thermal analysis (hereinafter abbreviated as “DTA”) and thermogravimetric analysis (hereinafter abbreviated as “TGA”) using “MODEL TG/DTA 220”, a digital thermo analyzer commercialized by Seiko Instruments Inc., Tokyo, Japan, to determine their melting points, i.e., temperatures at which the styryl dyes as test specimens begin to absorb heat on TGA, and decomposition points, i.e., temperatures at which the styryl dyes as test specimens begin to lose their weight on DTA. In parallel, the conventional related compound represented by Chemical Formula 44 was analyzed similarly as above. […] In TGA and DTA, the environmental temperature was set to an increasing temperature mode at a rate of 10° C./min.

Question: What does the source list for `CN(C)c1ccc(C=CC2=[N+](C)c3ccc(Cl)cc3C2(C)C)cc1.Cc1ccc(S(=O)(=O)[O-])cc1` [Chemical Formula 44]?
Answer: Residual percentage of dye (%) ([1]; no light-resistant improver added (Formula 26 is itself combined with azo organic metal complex anion)): 3.2%; Residual percentage of dye (%) ([1]; with addition of the azo organic metal complex of Chemical Formula 38): 89.5%; Decomposition point (° C.) ([2]; DTA/TGA, MODEL TG/DTA 220, temperature increasing at 10° C./min): 236.1 °C; Decomposition behaviour around the decomposition point ([2]; TGA/DTA, 10° C./min): very slowly decomposed at around the decomposition point
